The text below walks through data of US20060293187A1, “Herbicidal mixtures based on 3-phenyluracils” (BASF Aktiengesellschaft, priority 2003, published 2006).

What all share (format): in vivo
Settings in all cases: 21 days, 0 = no damage, 100 = complete destruction

One assay concerns Alopecurus myosuroides. The assay can be described thus: Greenhouse experiment, herbicidal activity, post-emergence method. From the text:
(§1) For the post-emergence treatment, the test plants were first grown to a height of 3 to 20 cm, depending on the plant habit, and only then treated. Here, the herbicidal compositions were suspended or emulsified in water as distribution medium and sprayed using finely distributing nozzles.
(§2) The respective components I and B and/or C were formulated as 10% by weight strength emulsion concentrate and introduced to the spray liquor with the amount of solvent system used for applying the active compound. In the examples, the solvent used was water.
(§3) The test period extended over 21 days. During this time, the plants were tended, and their response to the treatments with active compound was evaluated.
(§4) The evaluation for the damage caused by the chemical compositions was carried out using a scale from 0 to 100%, compared to the untreated control plants. Here, 0 means no damage and 100 means complete destruction of the plants.
(§5) In the examples below, the value E which is to be expected if the activity of the individual compounds is just additive was calculated using the method of S. R. Colby (1967) “Calculating synergistic and antagonistic responses of herbicide combinations”, Weeds 15, p. 22 ff. E=X+Y−(X·Y/100) where
(§6) X=effect in percent using active compound I at an application rate a;
(§7) Y=effect in percent using active compound B at an application rate b;
(§8) E=expected effect (in %) of I+B at application rates a+b.
(§9) If the value […] in this manner is higher than the value E calculated according to Colby, a synergistic effect is present.

Another assay concerns Amaranthus retroflexus. The assay can be described thus: Greenhouse experiment, herbicidal activity, pre-emergence method. On the procedure: as §2, §3, §4, §5, §6, §7, §8, §9
Another assay deals with Echinocloa crus-galli. The assay can be described thus: Greenhouse experiment, herbicidal activity, post-emergence method.
Excerpt: as §1, §2, §3, §4, §5, §6, §7, §8, §9

[1] abbreviates: application rate 1.95 g/ha of each active compound applied (mixture 1.95 + 1.95 g/ha).
Setting [2] is: application rate 0.98 g/ha of each active compound applied (mixture 0.98 + 0.98 g/ha).

As for “4-Hydroxy-3-{[2-methoxyethoxy)methyl-6-(trifluormethyl)-3-pyridinyl]carbonyl}bicyclo[3.2.1]oct-3-en-2-one [B.2]”, the “Herbicidal activity against Alopecurus myosuroides, found” value in the assay with Alopecurus myosuroides (setting [1]) and in the assay on Alopecurus myosuroides (application rate 3.91 g/ha of each active compound applied (mixture 3.91 + 3.91 g/ha)) was 0% throughout.

In the case of `Cc1nc(C(F)(F)F)ccc1C(=O)C1=C(O)C2CCC(C2)C1=O` (stereo not drawn) [B.1, 4-Hydroxy-3-{[2-methyl-6-(triflurmethyl)-3-pyridinyl]carbonyl}ci-cyclo[3.2.1]oct-3-en-2-one], the results for the “Herbicidal activity against Amaranthus retroflexus, found” value in the assay with Amaranthus retroflexus (setting [2]) and with Amaranthus retroflexus (setting [1]) were 0% and 20%, respectively. For the same compound, the “Herbicidal activity against Echinocloa crus-galli, found” value in the assay with Echinocloa crus-galli (setting [2]) is 30%; in the assay with Echinocloa crus-galli (setting [1]), 60%.
